Measured values reported in patent US20220095663A1, “COMPLEX MUSHROOM MYCELIUM COMPOSITION HAVING LIVER FUNCTION-IMPROVING ACTIVITY AND PREPARATION METHOD THEREFOR” (GIUNCHAN CO., LTD., priority 2019, published 2022).

Test: Antioxidation activity by DPPH method
Conditions: 50 μg/ml, positive control
Method: 7) Antioxidation activity measurement test: The antioxidation activity of each sample was measured by a DPPH method using 1.1-diphenyl-2-picrylhydrazyl. The positive control group was treated with BHT at a concentration of 50 μg/ml.

Q: For `Cc1cc(C(C)(C)C)c(O)c(C(C)(C)C)c1` [BHT], which DPPH inhibition is on record?
A: Its DPPH inhibition is 10%.
